Results taken from PubChem BioAssay AID1963834 (Molecular Pharmacology Branch, DTP, NCI, 2024).

Test system: 873145-292-R-J1-PDC complex spheroid viability
Assay: Anticancer human tumor 873145-292-R-J1-PDC patient-derived renal clear cell carcinoma cell line growth inhibition [POLQ]
Conditions: for IC50: curve of first compound; for viability, T/C: stronger effect = lower value
Method in brief: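 Complex spheroid viability model combining PDC tumour cells with endothelial (HUVEC) and MSC stromal cells. Novobiocin, ART-558 or RP6685 were tested singly and in combination with standard and investigational anticancer drugs. Each was titrated in half-log steps from near clinical Cmax, or from 10 microM where Cmax was unknown.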

[1] = second compound 0.0316 µM, first compound 0.0316 µM
[2] = second compound 0.0316 µM, first compound 0.1 µM
[3] = second compound 0.1 µM, first compound 0.0316 µM
[4] = second compound 0.1 µM, first compound 0.1 µM
[5] = second compound 0.316 µM, first compound 0.0316 µM
[6] = second compound 0.316 µM, first compound 0.1 µM
[7] = second compound 1 µM, first compound 0.0316 µM
[8] = second compound 1 µM, first compound 0.1 µM
[9] = second compound 3.16 µM, first compound 0.0316 µM
[10] = second compound 3.16 µM, first compound 0.1 µM
[11] = second compound 10 µM, first compound 0.0316 µM
[12] = second compound 10 µM, first compound 0.1 µM
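Note: spheroids exposed to compounds for 7 days before viability readout.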
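Throughout, for viability, T/C: luminescence signal used as surrogate for viable cell content; 100% = DMSO vehicle control viability.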

For `CC(=O)O[C@H]1C(=O)[C@@]2(C)[C@H]([C@H](OC(=O)c3ccccc3)[C@]3(O)C[C@H](OC(=O)[C@H](O)[C@@H](NC(=O)c4ccccc4)c4ccccc4)C(C)=C1C3(C)C)[C@]1(OC(C)=O)CO[C@@H]1C[C@@H]2O` + Cc1cccc(N(C)C(=O)C2C(O)CCN2c2nc(C)cc(C(F)(F)F)c2C#N)c1, the IC50 (second compound 0.0316 µM) was > 3 µM, the IC50 (second compound 0.1 µM) was > 3 µM and the IC50 (second compound 0.316 µM) was > 3 µM. For the same compound, the IC50 (second compound 1 µM) was > 3 µM, the IC50 (second compound 3.16 µM) was > 3 µM and the IC50 (second compound 10 µM) was > 3 µM. The viability, T/C (second compound 0.0316 µM, first compound 0.00949 µM) was 92.4%, the viability, T/C (second compound 0.0316 µM, first compound 0.03 µM) was 75.9% and the viability, T/C (second compound 0.0316 µM, first compound 0.0949 µM) was 74.7%. It also gave a viability, T/C (second compound 0.0316 µM, first compound 0.3 µM) of 69.1%, a viability, T/C (second compound 0.0316 µM, first compound 0.949 µM) of 72.8% and a viability, T/C (second compound 0.0316 µM, first compound 3 µM) of 74.9%. It also gave a viability, T/C (second compound 0.1 µM, first compound 0.00949 µM) of 92%, a viability, T/C (second compound 0.1 µM, first compound 0.03 µM) of 99% and a viability, T/C (second compound 0.1 µM, first compound 0.0949 µM) of 67%. The viability, T/C (second compound 0.1 µM, first compound 0.3 µM) was 77.7%, the viability, T/C (second compound 0.1 µM, first compound 0.949 µM) was 68.6% and the viability, T/C (second compound 0.1 µM, first compound 3 µM) was 66.3%. It also gave a viability, T/C (second compound 0.316 µM, first compound 0.00949 µM) of 94.5%, a viability, T/C (second compound 0.316 µM, first compound 0.03 µM) of 82.4% and a viability, T/C (second compound 0.316 µM, first compound 0.0949 µM) of 76.2%. The viability, T/C (second compound 0.316 µM, first compound 0.3 µM) was 74.1%, the viability, T/C (second compound 0.316 µM, first compound 0.949 µM) was 76.5% and the viability, T/C (second compound 0.316 µM, first compound 3 µM) was 70.3%. The viability, T/C (second compound 1 µM, first compound 0.00949 µM) was 79.7%, the viability, T/C (second compound 1 µM, first compound 0.03 µM) was 84.3% and the viability, T/C (second compound 1 µM, first compound 0.0949 µM) was 81.8%. The viability, T/C (second compound 1 µM, first compound 0.3 µM) was 77.8%, the viability, T/C (second compound 1 µM, first compound 0.949 µM) was 73.3% and the viability, T/C (second compound 1 µM, first compound 3 µM) was 69.3%. For the same compound, the viability, T/C (second compound 3.16 µM, first compound 0.00949 µM) was 84.7%, the viability, T/C (second compound 3.16 µM, first compound 0.03 µM) was 85.6% and the viability, T/C (second compound 3.16 µM, first compound 0.0949 µM) was 72.5%. The viability, T/C (second compound 3.16 µM, first compound 0.3 µM) was 71.5%, the viability, T/C (second compound 3.16 µM, first compound 0.949 µM) was 80.3% and the viability, T/C (second compound 3.16 µM, first compound 3 µM) was 80.4%. For the same compound, the viability, T/C (second compound 10 µM, first compound 0.00949 µM) was 75.4%, the viability, T/C (second compound 10 µM, first compound 0.03 µM) was 80.3% and the viability, T/C (second compound 10 µM, first compound 0.0949 µM) was 75.8%. For the same compound, the viability, T/C (second compound 10 µM, first compound 0.3 µM) was 65.9%, the viability, T/C (second compound 10 µM, first compound 0.949 µM) was 75.6% and the viability, T/C (second compound 10 µM, first compound 3 µM) was 71.2%.
`CC[C@@]1(O)C(=O)OCc2c1cc1n(c2=O)Cc2cc3c(CN(C)C)c(O)ccc3nc2-1` + Cc1cccc(N(C)C(=O)C2C(O)CCN2c2nc(C)cc(C(F)(F)F)c2C#N)c1 was tested, and the IC50 (second compound 0.0316 µM) was > 0.1 µM, the IC50 (second compound 0.1 µM) was > 0.1 µM and the IC50 (second compound 0.316 µM) was 0.0922 µM. The IC50 (second compound 1 µM) was > 0.1 µM, the IC50 (second compound 3.16 µM) was > 0.1 µM and the IC50 (second compound 10 µM) was > 0.1 µM. The viability, T/C (second compound 0.0316 µM, first compound 0.000316 µM) was 105%, the viability, T/C (second compound 0.0316 µM, first compound 0.001 µM) was 95.2% and the viability, T/C (second compound 0.0316 µM, first compound 0.00316 µM) was 89.6%. For the same compound, the viability, T/C (second compound 0.0316 µM, first compound 0.01 µM) was 104%, the viability, T/C [1] was 73.7% and the viability, T/C [2] was 52.5%. The viability, T/C (second compound 0.1 µM, first compound 0.000316 µM) was 93.3%, the viability, T/C (second compound 0.1 µM, first compound 0.001 µM) was 101% and the viability, T/C (second compound 0.1 µM, first compound 0.00316 µM) was 97.8%. For the same compound, the viability, T/C (second compound 0.1 µM, first compound 0.01 µM) was 101%, the viability, T/C [3] was 74.4% and the viability, T/C [4] was 52.2%. The viability, T/C (second compound 0.316 µM, first compound 0.000316 µM) was 94.9%, the viability, T/C (second compound 0.316 µM, first compound 0.001 µM) was 113% and the viability, T/C (second compound 0.316 µM, first compound 0.00316 µM) was 96.8%. For the same compound, the viability, T/C (second compound 0.316 µM, first compound 0.01 µM) was 97.3%, the viability, T/C [5] was 78.7% and the viability, T/C [6] was 47.8%. For the same compound, the viability, T/C (second compound 1 µM, first compound 0.000316 µM) was 101%, the viability, T/C (second compound 1 µM, first compound 0.001 µM) was 98.9% and the viability, T/C (second compound 1 µM, first compound 0.00316 µM) was 87.9%. The viability, T/C (second compound 1 µM, first compound 0.01 µM) was 104%, the viability, T/C [7] was 75% and the viability, T/C [8] was 59.2%. The viability, T/C (second compound 3.16 µM, first compound 0.000316 µM) was 89.6%, the viability, T/C (second compound 3.16 µM, first compound 0.001 µM) was 91.5% and the viability, T/C (second compound 3.16 µM, first compound 0.00316 µM) was 92.8%. The viability, T/C (second compound 3.16 µM, first compound 0.01 µM) was 97.8%, the viability, T/C [9] was 78% and the viability, T/C [10] was 63.9%. For the same compound, the viability, T/C (second compound 10 µM, first compound 0.000316 µM) was 93.4%, the viability, T/C (second compound 10 µM, first compound 0.001 µM) was 95.2% and the viability, T/C (second compound 10 µM, first compound 0.00316 µM) was 94.5%. It also gave a viability, T/C (second compound 10 µM, first compound 0.01 µM) of 98.8%, a viability, T/C [11] of 81.8% and a viability, T/C [12] of 54.5%.
With `O=c1[nH]cc(F)c(=O)[nH]1` + Cc1cccc(N(C)C(=O)C2C(O)CCN2c2nc(C)cc(C(F)(F)F)c2C#N)c1 the IC50 (second compound 0.0316 µM) was > 10 µM, the IC50 (second compound 0.1 µM) was > 10 µM and the IC50 (second compound 0.316 µM) was > 10 µM. For the same compound, the IC50 (second compound 1 µM) was > 10 µM, the IC50 (second compound 3.16 µM) was > 10 µM and the IC50 (second compound 10 µM) was > 10 µM. For the same compound, the viability, T/C [1] was 106%, the viability, T/C [2] was 104% and the viability, T/C (second compound 0.0316 µM, first compound 0.316 µM) was 99.8%. For the same compound, the viability, T/C (second compound 0.0316 µM, first compound 1 µM) was 102%, the viability, T/C (second compound 0.0316 µM, first compound 3.16 µM) was 115% and the viability, T/C (second compound 0.0316 µM, first compound 10 µM) was 93.3%. It also gave a viability, T/C [3] of 118%, a viability, T/C [4] of 101% and a viability, T/C (second compound 0.1 µM, first compound 0.316 µM) of 103%. The viability, T/C (second compound 0.1 µM, first compound 1 µM) was 109%, the viability, T/C (second compound 0.1 µM, first compound 3.16 µM) was 97.2% and the viability, T/C (second compound 0.1 µM, first compound 10 µM) was 100%. It also gave a viability, T/C [5] of 98.3%, a viability, T/C [6] of 106% and a viability, T/C (second compound 0.316 µM, first compound 0.316 µM) of 91.4%. For the same compound, the viability, T/C (second compound 0.316 µM, first compound 1 µM) was 92.4%, the viability, T/C (second compound 0.316 µM, first compound 3.16 µM) was 117% and the viability, T/C (second compound 0.316 µM, first compound 10 µM) was 102%. It also gave a viability, T/C [7] of 102%, a viability, T/C [8] of 113% and a viability, T/C (second compound 1 µM, first compound 0.316 µM) of 100%. The viability, T/C (second compound 1 µM, first compound 1 µM) was 95%, the viability, T/C (second compound 1 µM, first compound 3.16 µM) was 109% and the viability, T/C (second compound 1 µM, first compound 10 µM) was 96.8%. The viability, T/C [9] was 93.5%, the viability, T/C [10] was 101% and the viability, T/C (second compound 3.16 µM, first compound 0.316 µM) was 87.7%. For the same compound, the viability, T/C (second compound 3.16 µM, first compound 1 µM) was 92.6%, the viability, T/C (second compound 3.16 µM, first compound 3.16 µM) was 101% and the viability, T/C (second compound 3.16 µM, first compound 10 µM) was 104%. For the same compound, the viability, T/C [11] was 98.6%, the viability, T/C [12] was 92.9% and the viability, T/C (second compound 10 µM, first compound 0.316 µM) was 94.7%. For the same compound, the viability, T/C (second compound 10 µM, first compound 1 µM) was 98.4%, the viability, T/C (second compound 10 µM, first compound 3.16 µM) was 104% and the viability, T/C (second compound 10 µM, first compound 10 µM) was 92%.
